For data set [1] the following is noted: Crystal; DTA.
Data set [2] can be described thus: Molar enthalpy of transition or fusion. The conditions noted are these: Crystal; DSC.

These results are taken from the NIST ThermoML archive (doi:10.1016/j.tca.2017.02.014).

Several values for one entry are separate records, joined by “and”; a condition that tells them apart may be missing. Identical values can stand only once. ± gives the expanded uncertainty stated by the source.

As for `CC(C(=O)O)c1cccc(C(=O)c2ccccc2)c1` (centres undefined) [ketoprofen], the Normal melting temperature in data set [1] is 94.20 ± 0.5 °C and 93.50 ± 0.5 °C. Further, the “Molar enthalpy of transition or fusion” value in data set [2] was 7.29 ± 0.287 kcal/mol.
For the compound `NC(=O)c1cccnc1` [3-pyridinecarboxamide], the Normal melting temperature in data set [1] was 128.00 ± 0.5 °C and 127.50 ± 0.5 °C. Further, the “Molar enthalpy of transition or fusion” value in data set [2] came out at 5.88 ± 0.263 kcal/mol.
